What all share (assay): DTP human tumour cell line panel, 48 h
The subject of assay [1] is UACC-257.
For assay [2], the system named is SF-295.
For assay [3], the system named is TK-10.
Assay [4] relates to HT-29.
In assay [5] the test system is DU-145.
Assay [6] relates to SK-MEL-5.
For assay [7], the system named is MDA-N.
The subject of assay [8] is ACHN.
Assay [9] has as its system OVCAR-5.
Assay [10] relates to A549.
In assay [11] the test system is LOX IMVI.
Assay [12] relates to Hs-578T.
Assay [13] relates to SK-MEL-2.
Assay [14] relates to SW-620.
The test system of assay [15] is CCRF-CEM.
Assay [16] has as its system HL-60.
Assay [17] deals with KM12.
Assay [18] relates to NCI-H226.
In assay [19] the test system is NCI-H23.

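Exposure lasted 48 hours, with cells grown in 96-well plates and compounds tested at five concentrations. GI50 marks 50% less growth.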 Activity calls are given as the source filed them. No stated cut-off is given here; in the data, active = GI50 up to about 1.1 µM and inactive = higher.

The source of these data is ChEMBL document CHEMBL1201862, “PubChem BioAssay data set” (2004).

With `CC1CCC2C(C)C(OC(=O)CCC(=O)O)OC3OC4(C)CCC1C32OO4` (stereo unspecified), the GI50 in [1] is 2.17 µM (inactive); in [2], 15.8 µM (inactive); in assay [3] it was 2.99 µM (inactive); in assay [4] it was 3.52 µM (inactive); in [5], 21.4 µM (inactive); in assay [6], 1.57 µM (inactive). Further, the GI50 was 2.65 µM (inactive) in assay [7]; 4.52 µM (inactive) in assay [8]; 1.31 µM (inactive) in assay [9]; 11.9 µM (inactive) in assay [10]; 1.06 µM (active) in assay [11]; 16 µM (inactive) in assay [12]. Moreover, the GI50 in [13] is 3.86 µM (inactive); in assay [14] it was 1.57 µM (inactive); in assay [15] it was 3.78 µM (inactive); in [16], 427 nM (active); in assay [17], 1.33 µM (inactive).
For the compound `Cc1ccc2c(c1)C(=S)N1CSCC1c1nncn1-2` (stereo unspecified), the GI50 in [18], in [1], in assay [2], in [3], in assay [4] and in assay [5] was > 100 µM (inactive) throughout. The GI50 in assay [6], in assay [7], in [8], in [9], in assay [10] and in assay [11] was > 100 µM (inactive) throughout. Further, the GI50 in [12], in [13], in assay [14], in [15] and in assay [17] was > 100 µM (inactive) each time.
As for `CC(=N/NC(=S)N1CCCCC1)/C(C)=N\NC(=S)N1CCCCC1`, the GI50 was 1.57 µM (inactive) in [18]; 1.87 µM (inactive) in assay [1]; 1.71 µM (inactive) in assay [2]; 1.77 µM (inactive) in [3]; 1.93 µM (inactive) in assay [4]; 1.61 µM (inactive) in [5]. The GI50 in assay [6] is 1.57 µM (inactive); in assay [7], 2.47 µM (inactive); in [8], 1.55 µM (inactive); in assay [9], 1.78 µM (inactive); in [10] it was 1.73 µM (inactive); in assay [11] it was 3.15 µM (inactive). Besides, the GI50 in assay [12] is 1.85 µM (inactive); in assay [13], 1.97 µM (inactive); in assay [14], 2.14 µM (inactive); in assay [17], 1.82 µM (inactive); in assay [19], 2.13 µM (inactive).
Regarding `CC(C)(C)OC(=O)N1NC(c2ccccc2)CC1c1ccccc1` (stereo unspecified), the GI50 in [18] is 29.1 µM (inactive); in [1] it was 43.7 µM (inactive); in assay [2] it was 33.6 µM (inactive); in assay [3], 37.3 µM (inactive); in assay [4], 26.7 µM (inactive); in assay [5], 27.2 µM (inactive). Moreover, the GI50 in [6] was 19.6 µM (inactive); in assay [7] it was 42.6 µM (inactive); in assay [8], 28.1 µM (inactive); in assay [9], 28.4 µM (inactive); in assay [10] it was 13.8 µM (inactive); in assay [12] it was 36.6 µM (inactive). Further, the GI50 in assay [14] was 45 µM (inactive); in assay [15], 19 µM (inactive); in assay [17] it was 20.7 µM (inactive); in [19] it was 17.4 µM (inactive).
Regarding `COC(=O)CCC1(C)C2CCC1/C(=N/O)C2` (stereo unspecified), the GI50 in [18], in assay [1], in assay [2], in [3], in assay [4] and in assay [5] was > 100 µM (inactive) throughout. Moreover, the GI50 in assay [6], in [7], in assay [8], in assay [9], in assay [10] and in [12] was > 100 µM (inactive) in each case. The GI50 in [13], in assay [14], in assay [15], in assay [17] and in [19] was > 100 µM (inactive) in each case.
In the case of `CCCCCC(/C=N/NC(N)=S)C(O)(C(F)(F)F)C(F)(F)F` (stereo unspecified), the GI50 in assay [18], in [1], in assay [2], in assay [3], in assay [4] and in assay [5] was > 10 µM (inactive) in each case. Besides, the GI50 in assay [6], in assay [7], in assay [8], in assay [9], in [10] and in assay [11] was > 10 µM (inactive) in each case. Also, the GI50 in assay [12], in assay [13], in assay [14], in assay [15], in [17] and in assay [19] was > 10 µM (inactive) in each case.
Take `O=c1[nH]c(=O)n(C2CC(O)C(CO)O2)c2nc3ccc4cc5ccccc5cc4c3nc12` (stereo unspecified): the GI50 in assay [18], in [1], in assay [2], in assay [3], in [4] and in assay [5] was > 100 µM (inactive) each time. Further, the GI50 in assay [6] was > 100 µM (inactive); in assay [7], > 100 µM (inactive); in assay [8], > 100 µM (inactive); in [9], > 100 µM (inactive); in [10], > 100 µM (inactive); in assay [11] it was 14.8 µM (inactive). In addition, the GI50 is > 100 µM (inactive) in assay [12]; > 100 µM (inactive) in [13]; > 100 µM (inactive) in assay [14]; > 100 µM (inactive) in assay [15]; 51.6 µM (inactive) in [17]; > 100 µM (inactive) in assay [19].
Regarding `COc1cccc(-c2nc(O)c3ccccc3n2)c1OC`, the GI50 in [18], in assay [1], in assay [2], in assay [4], in assay [5] and in assay [6] was > 100 µM (inactive) in each case. Moreover, the GI50 in assay [7], in assay [8], in assay [9], in assay [10], in assay [12] and in assay [13] was > 100 µM (inactive) in each case. In addition, the GI50 in [14], in assay [15], in [17] and in [19] was > 100 µM (inactive) in each case.
